Key:
[1] = molecular target: T1, PrpC (2-methylcitrate synthase, Rv1131) (Mycobacterium tuberculosis, UniProt I6Y9Q3); experiment: biochemical
T1 construct: full-length, C-terminal 6x-His tag

[2] = molecular target: HsaAB (HsaA, of the two-component flavin-dependent hydroxylase) (Mycobacterium tuberculosis, UniProt P9WJA1); experiment: biochemical
HsaAB (HsaA, of the two-component flavin-dependent hydroxylase), sequence (P9WND9 whole entry): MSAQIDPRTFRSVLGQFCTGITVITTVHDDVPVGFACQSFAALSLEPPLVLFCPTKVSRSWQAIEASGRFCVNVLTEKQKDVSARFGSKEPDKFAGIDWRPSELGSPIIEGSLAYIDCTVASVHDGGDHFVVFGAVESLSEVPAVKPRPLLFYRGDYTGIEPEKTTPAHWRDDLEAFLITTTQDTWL
HsaAB (HsaA, of the two-component flavin-dependent hydroxylase), sequence (P9WJA1 whole entry): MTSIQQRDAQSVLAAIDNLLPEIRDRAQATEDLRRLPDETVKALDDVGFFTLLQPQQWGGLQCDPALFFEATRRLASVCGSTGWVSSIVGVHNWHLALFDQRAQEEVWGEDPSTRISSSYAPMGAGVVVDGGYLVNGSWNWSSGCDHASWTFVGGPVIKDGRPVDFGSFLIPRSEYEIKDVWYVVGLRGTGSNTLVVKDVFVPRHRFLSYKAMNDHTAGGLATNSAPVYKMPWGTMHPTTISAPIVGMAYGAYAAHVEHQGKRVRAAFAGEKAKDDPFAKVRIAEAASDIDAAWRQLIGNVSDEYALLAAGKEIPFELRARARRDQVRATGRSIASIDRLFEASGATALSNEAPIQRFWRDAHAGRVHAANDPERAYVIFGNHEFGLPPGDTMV

T1 sequence (I6Y9Q3 whole entry): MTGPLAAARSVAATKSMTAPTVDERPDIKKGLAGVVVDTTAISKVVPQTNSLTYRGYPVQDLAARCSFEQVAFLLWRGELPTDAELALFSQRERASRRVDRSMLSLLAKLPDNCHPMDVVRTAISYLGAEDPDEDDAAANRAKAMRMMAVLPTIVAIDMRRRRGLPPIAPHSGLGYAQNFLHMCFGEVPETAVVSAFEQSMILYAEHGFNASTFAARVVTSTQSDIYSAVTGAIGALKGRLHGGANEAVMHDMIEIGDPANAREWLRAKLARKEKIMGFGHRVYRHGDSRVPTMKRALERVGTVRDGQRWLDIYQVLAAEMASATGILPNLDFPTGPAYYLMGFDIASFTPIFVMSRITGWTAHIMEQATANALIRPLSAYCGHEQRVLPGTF

Structure (SMILES)	IC50 [1] [µM]	IC50 [2] [µM]
Cc1nnc(NS(=O)(=O)c2ccc(NC(=O)c3cc(-c4ccc(Cl)cc4)oc3C(F)(F)F)cc2)s1 [V-13–009920, 5-(4-chlorophenyl)-N-(4-(N-(5-methyl-1,3,4-thiadiazol-2-yl)sulfamoyl)phenyl)-2-(trifluoromethyl)furan-3-carboxamide]	4 ± 1.1	
Cc1noc(C)c1C(=O)Nc1nnc(-c2ccccc2)s1 [V-13–011503, 3,5-dimethyl-N-(5-phenyl-1,3,4-thiadiazol-2-yl)-1,2-oxazole-4-carboxamide]		11 ± 2
Cc1cc(=O)n2[nH]c(-c3ccc(F)cc3)nc2n1 [V-13–012725, 2-(4-fluorophenyl)-5-methyl-1H-[1,2, 4]triazolo[1,5-a]pyrimidin-7-one]		5 ± 0.8

— PMC4335503, “Novel Inhibitors of Cholesterol Degradation in Mycobacterium tuberculosis Reveal How the Bacterium’s Metabolism Is Constrained by the Intracellular Environment” (PLoS Pathogens, 2015)
